In article PMC6150173, “Tryptophan-Containing Cyclic Decapeptides with Activity against Plant Pathogenic Bacteria” (Molecules : A Journal of Synthetic Chemistry and Natural …, 2017):
Peptide text beside a SMILES is read from it.

Tests used:
Assay type in all cases: cell-based
[1] = system: Erwinia amylovora PMV6076; assay: Antibacterial activity (MIC), in vitro growth inhibition; conditions: Table S1, MIC range
Procedure: (§1) Erwinia amylovora PMV6076 (Institut National de la Recherche Agronomique, Angers, France), Pseudomonas syringae pv. syringae EPS94 (Institut de Tecnologia Agroalimentària, Universitat de Girona, Spain), and Xanthomonas axonopodis pv. vesicatoria 2133-2 (Instituto Valenciano de Investigaciones Agrarias, Valencia, Spain) were used as bacterial strains. They were stored and cultivated as previously described.
(§2) The minimum inhibitory concentration (MIC) was analyzed as previously described at 0.8, 1.6, 3.1, 6.2, 12.5, 25 and 50 μM [20].

[2] = system: Pseudomonas syringae pv. syringae EPS94; assay: as above; conditions: Table S1, MIC range
Procedure: as §1, §2

[3] = system: Xanthomonas axonopodis pv. vesicatoria 2133-2; conditions: Table S1, MIC range
Procedure: as §1, §2

[4] = system: erythrocyte suspensions of human blood; assay: Hemolytic activity, hemoglobin release; conditions: human blood erythrocytes 5% v/v, absorbance 540 nm, percentage compared to melittin, three replicates; for Hemolysis (%) at 50 µM: peptide 50 μM (table prints 50 µM); for Hemolysis (%) at 125 µM: peptide 125 μM (table prints 125 µM)
Procedure: The hemolytic activity of the compounds was evaluated at 50 and 125 μM by determining hemoglobin release from erythrocyte suspensions of human blood (5% v/v) (Oxoid) using absorbance at 540 nm, as previously described. Three replicates for each peptide concentration were used.

Compound	MIC Ea [1]	MIC Pss [2]	MIC Xav [3]	Hemolysis (%) at 50 µM [4]	Hemolysis (%) at 125 µM [4]
CC(C)C[C@@H]1NC(=O)[C@H](CCCCN)NC(=O)[C@H](CCCCN)NC(=O)[C@H](CCCCN)NC(=O)[C@H](CCCCN)NC(=O)[C@H](CCC(N)=O)NC(=O)[C@H](CC(C)C)NC(=O)[C@H](CC(C)C)NC(=O)[C@H](CCCCN)NC(=O)[C@H](Cc2c[nH]c3ccccc23)NC1=O [BPC060W, c(KKKKLWKLLQ)] (cyclo(KKKKLWKLLQ))	12.5 to 25 µM	3.1 to 6.2 µM	6.2 to 12.5 µM	22%	29%
CC(C)C[C@@H]1NC(=O)[C@H](CCCCN)NC(=O)[C@H](CCCCN)NC(=O)[C@H](CCCCN)NC(=O)[C@H](CCC(N)=O)NC(=O)[C@H](CC(C)C)NC(=O)[C@H](CC(C)C)NC(=O)[C@H](CCCCN)NC(=O)[C@H](Cc2c[nH]c3ccccc23)NC(=O)[C@H](CCCCN)NC1=O [BPC062W, c(KKKLKWKLLQ)] (cyclo(KKKLKWKLLQ))	12.5 to 25 µM	3.1 to 6.2 µM	6.2 to 12.5 µM	3%	4%
CC(C)C[C@@H]1NC(=O)[C@H](CCCCN)NC(=O)[C@H](CCCCN)NC(=O)[C@H](CCC(N)=O)NC(=O)[C@H](CC(C)C)NC(=O)[C@H](CC(C)C)NC(=O)[C@H](CCCCN)NC(=O)[C@H](Cc2c[nH]c3ccccc23)NC(=O)[C@H](CCCCN)NC(=O)[C@H](CCCCN)NC1=O [BPC064W, c(KKLKKWKLLQ)] (cyclo(KKLKKWKLLQ))	6.2 to 12.5 µM	3.1 to 6.2 µM	6.2 to 12.5 µM	17%	25%
CC(C)C[C@@H]1NC(=O)[C@H](CCCCN)NC(=O)[C@H](CCC(N)=O)NC(=O)[C@H](CC(C)C)NC(=O)[C@H](CC(C)C)NC(=O)[C@H](CCCCN)NC(=O)[C@H](Cc2c[nH]c3ccccc23)NC(=O)[C@H](CCCCN)NC(=O)[C@H](CCCCN)NC(=O)[C@H](CCCCN)NC1=O [BPC066W, c(KLKKKWKLLQ)] (cyclo(KKKWKLLQKL))	6.2 to 12.5 µM	6.2 to 12.5 µM	6.2 to 12.5 µM	33%	41%
CC(C)C[C@@H]1NC(=O)[C@H](CCC(N)=O)NC(=O)[C@H](CC(C)C)NC(=O)[C@H](CC(C)C)NC(=O)[C@H](CCCCN)NC(=O)[C@H](Cc2c[nH]c3ccccc23)NC(=O)[C@H](CCCCN)NC(=O)[C@H](CCCCN)NC(=O)[C@H](CCCCN)NC(=O)[C@H](CCCCN)NC1=O [BPC068W, c(LKKKKWKLLQ)] (cyclo(KKKKWKLLQL))	25 to 50 µM	6.2 to 12.5 µM	1.6 to 3.1 µM	6%	7%
CC(C)C[C@@H]1NC(=O)[C@H](CCCCN)NC(=O)[C@H](CC(C)C)NC(=O)[C@H](Cc2c[nH]c3ccccc23)NC(=O)[C@H](CC(C)C)NC(=O)[C@H](CCCCN)NC(=O)[C@H](CCCCN)NC(=O)[C@H](CCCCN)NC(=O)[C@H](CCCCN)NC(=O)[C@H](CCC(N)=O)NC1=O [BPC070W, c(KKKKLWLKLQ)] (cyclo(KKKKLWLKLQ))	12.5 to 25 µM	6.2 to 12.5 µM	1.6 to 3.1 µM	6%	9%
CC(C)C[C@@H]1NC(=O)[C@H](CCC(N)=O)NC(=O)[C@H](CCCCN)NC(=O)[C@H](CCCCN)NC(=O)[C@H](CCCCN)NC(=O)[C@H](Cc2c[nH]c3ccccc23)NC(=O)[C@H](CC(C)C)NC(=O)[C@H](CC(C)C)NC(=O)[C@H](CCCCN)NC(=O)[C@H](CCCCN)NC1=O [BPC152W, c(LKKLLWKKKQ)] (cyclo(KKKQLKKLLW))	–	6.2 to 12.5 µM	6.2 to 12.5 µM	1%	3%
CC(C)C[C@@H]1NC(=O)[C@H](CCC(N)=O)NC(=O)[C@H](CCCCN)NC(=O)[C@H](CCCCN)NC(=O)[C@H](CCCCN)NC(=O)[C@H](Cc2c[nH]c3ccccc23)NC(=O)[C@H](CC(C)C)NC(=O)[C@H](CCCCN)NC(=O)[C@H](CC(C)C)NC(=O)[C@H](CCCCN)NC1=O [BPC156W, c(LKLKLWKKKQ)] (cyclo(KKKQLKLKLW))	–	6.2 to 12.5 µM	3.1 to 6.2 µM	1%	2%
CC(C)C[C@@H]1NC(=O)[C@H](CCCCN)NC(=O)[C@H](CCC(N)=O)NC(=O)[C@H](CCCCN)NC(=O)[C@H](CCCCN)NC(=O)[C@H](CCCCN)NC(=O)[C@H](Cc2c[nH]c3ccccc23)NC(=O)[C@H](CCCCN)NC(=O)[C@H](CC(C)C)NC(=O)[C@H](CC(C)C)NC1=O [BPC160W, c(KLLLKWKKKQ)] (cyclo(KKKQKLLLKW))	–	6.2 to 12.5 µM	6.2 to 12.5 µM	3%	6%
CC(C)C[C@@H]1NC(=O)[C@H](CCC(N)=O)NC(=O)[C@H](CCCCN)NC(=O)[C@H](CCCCN)NC(=O)[C@H](CCCCN)NC(=O)[C@H](Cc2c[nH]c3ccccc23)NC(=O)[C@H](CCCCN)NC(=O)[C@H](CC(C)C)NC(=O)[C@H](CC(C)C)NC(=O)[C@H](CCCCN)NC1=O [BPC162W, c(LKLLKWKKKQ)] (cyclo(KKKQLKLLKW))	–	6.2 to 12.5 µM	3.1 to 6.2 µM	57%	56%
CC(C)C[C@@H]1NC(=O)[C@H](CCCCN)NC(=O)[C@H](CC(C)C)NC(=O)[C@H](CC(C)C)NC(=O)[C@H](CCC(N)=O)NC(=O)[C@H](CCCCN)NC(=O)[C@H](CCCCN)NC(=O)[C@H](CCCCN)NC(=O)[C@H](Cc2c[nH]c3ccccc23)NC(=O)[C@H](CCCCN)NC1=O [BPC164W, c(LLKLKWKKKQ)] (cyclo(KKKQLLKLKW))	–	6.2 to 12.5 µM	6.2 to 12.5 µM	6%	6%
CC(C)C[C@@H]1NC(=O)[C@H](CCC(N)=O)NC(=O)[C@H](CCCCN)NC(=O)[C@H](CCCCN)NC(=O)[C@H](CCCCN)NC(=O)[C@H](Cc2c[nH]c3ccccc23)NC(=O)[C@H](CCCCN)NC(=O)[C@H](CCCCN)NC(=O)[C@H](CC(C)C)NC(=O)[C@H](CC(C)C)NC1=O [BPC166W, c(LLLKKWKKKQ)] (cyclo(KKKQLLLKKW))	–	6.2 to 12.5 µM	6.2 to 12.5 µM	1%	1%
CC(C)C[C@@H]1NC(=O)[C@H](CCCCN)NC(=O)[C@H](CCCCN)NC(=O)[C@H](Cc2c[nH]c3ccccc23)NC(=O)[C@H](CCCCN)NC(=O)[C@H](CC(C)C)NC(=O)[C@H](CCCCN)NC(=O)[C@H](CCCCN)NC(=O)[C@H](CCCCN)NC(=O)[C@H](CCC(N)=O)NC1=O [BPC186W, c(KKKLKWKKLQ)] (cyclo(KKKLKWKKLQ))	–	12.5 to 25 µM	6.2 to 12.5 µM	1%	1%
CC(C)C[C@@H]1NC(=O)[C@H](CCCCN)NC(=O)[C@H](CCCCN)NC(=O)[C@H](Cc2c[nH]c3ccccc23)NC(=O)[C@H](CCCCN)NC(=O)[C@H](CCCCN)NC(=O)[C@H](CC(C)C)NC(=O)[C@H](CC(C)C)NC(=O)[C@H](CC(C)C)NC(=O)[C@H](CCC(N)=O)NC1=O [BPC188W, c(LLLKKWKKLQ)] (cyclo(KKLQLLLKKW))	–	6.2 to 12.5 µM	12.5 to 25 µM	33%	48%
CC(C)C[C@@H]1NC(=O)[C@H](CCC(N)=O)NC(=O)[C@H](CC(C)C)NC(=O)[C@H](CCCCN)NC(=O)[C@H](CCCCN)NC(=O)[C@H](Cc2c[nH]c3ccccc23)NC(=O)[C@H](CCCCN)NC(=O)[C@H](CCCCN)NC(=O)[C@H](CCCCN)NC(=O)[C@H](CCCCN)NC1=O [BPC190W, c(LKKKKWKKLQ)] (cyclo(KKKKWKKLQL))	–	25 to 50 µM	12.5 to 25 µM	1%	3%
CC(C)C[C@@H]1NC(=O)[C@H](CCCCN)NC(=O)[C@H](CC(C)C)NC(=O)[C@H](CC(C)C)NC(=O)[C@H](CCC(N)=O)NC(=O)[C@H](CC(C)C)NC(=O)[C@H](CCCCN)NC(=O)[C@H](CCCCN)NC(=O)[C@H](Cc2c[nH]c3ccccc23)NC(=O)[C@H](CCCCN)NC1=O [BPC196W, c(LLKLKWKKLQ)] (cyclo(KKLQLLKLKW))	–	3.1 to 6.2 µM	1.6 to 3.1 µM	2%	3%
CC(C)C[C@@H]1NC(=O)[C@H](CCCCN)NC(=O)[C@H](CCCCN)NC(=O)[C@H](Cc2c[nH]c3ccccc23)NC(=O)[C@H](CCCCN)NC(=O)[C@H](CC(C)C)NC(=O)[C@H](CC(C)C)NC(=O)[C@H](CC(C)C)NC(=O)[C@H](CC(C)C)NC(=O)[C@H](CCC(N)=O)NC1=O [BPC200W, c(LLLLKWKKLQ)] (cyclo(KKLQLLLLKW))	–	> 50 µM	3.1 to 6.2 µM	6%	7%
CC(C)C[C@@H]1NC(=O)[C@H](CCCCN)NC(=O)[C@H](CCCCN)NC(=O)[C@H](Cc2c[nH]c3ccccc23)NC(=O)[C@H](CCCCN)NC(=O)[C@H](CCCCN)NC(=O)[C@H](CCCCN)NC(=O)[C@H](CCCCN)NC(=O)[C@H](CCCCN)NC(=O)[C@H](CCC(N)=O)NC1=O [BPC202W, c(KKKKKWKKLQ)] (cyclo(KKKKKWKKLQ))	–	25 to 50 µM	12.5 to 25 µM	0%	1%
